How the values were obtained:
[1] = test system: Dox-inducible secondary mouse embryonic fibroblasts (MEFs); experiment: Direct reprogramming of fibroblasts into definitive endoderm-like cells (Sox17/Foxa2); type: cell-based; settings: treatment in first two steps
Experimental: To extend and test the iPSC-factor-based lineage-specific reprogramming paradigm to endoderm, a two-step process was first devised to directly reprogram secondary MEF cells into definitive endoderm-like cells (DELCs). The first step (step I) involved culturing secondary MEF cells in media (Med-I) that is supplemented with 4 μg/ml Dox to initiate epigenetic activation. The second step (step II) was culturing the epigenetically activated cells in Med-II supplemented with 50 ng/ml Activin A and 1 mM LiCl (hereafter referred to as Activin/Li). […] Hereafter these Sox17/Foxa2 double-positive cells are referred to as definitive endoderm-like cells (DELCs).
To test this hypothesis, conditions were evaluated in which definitive endoderm induction factors (Activin/Li) were added to fibroblasts either after (Approach-I) or during (Approach II) iPSC factor expression, using Sox17 and Foxa2 expression as a measure of DELC induction (FIG. 1A).

[2] = test system: Dox-inducible secondary mouse embryonic fibroblasts (MEFs); experiment: Pdx1+/Nkx6.1+ colony number on day 16 after small molecules in first/second step; settings: 1 μM Bix-01294 D0 to D6; 280 μM pVc D0 to D12; readout day 16
Axl = target: T1, Axl (Homo sapiens, UniProt P30530); settings: 1 μM; cited from earlier work
T1 sequence (P30530 26-894): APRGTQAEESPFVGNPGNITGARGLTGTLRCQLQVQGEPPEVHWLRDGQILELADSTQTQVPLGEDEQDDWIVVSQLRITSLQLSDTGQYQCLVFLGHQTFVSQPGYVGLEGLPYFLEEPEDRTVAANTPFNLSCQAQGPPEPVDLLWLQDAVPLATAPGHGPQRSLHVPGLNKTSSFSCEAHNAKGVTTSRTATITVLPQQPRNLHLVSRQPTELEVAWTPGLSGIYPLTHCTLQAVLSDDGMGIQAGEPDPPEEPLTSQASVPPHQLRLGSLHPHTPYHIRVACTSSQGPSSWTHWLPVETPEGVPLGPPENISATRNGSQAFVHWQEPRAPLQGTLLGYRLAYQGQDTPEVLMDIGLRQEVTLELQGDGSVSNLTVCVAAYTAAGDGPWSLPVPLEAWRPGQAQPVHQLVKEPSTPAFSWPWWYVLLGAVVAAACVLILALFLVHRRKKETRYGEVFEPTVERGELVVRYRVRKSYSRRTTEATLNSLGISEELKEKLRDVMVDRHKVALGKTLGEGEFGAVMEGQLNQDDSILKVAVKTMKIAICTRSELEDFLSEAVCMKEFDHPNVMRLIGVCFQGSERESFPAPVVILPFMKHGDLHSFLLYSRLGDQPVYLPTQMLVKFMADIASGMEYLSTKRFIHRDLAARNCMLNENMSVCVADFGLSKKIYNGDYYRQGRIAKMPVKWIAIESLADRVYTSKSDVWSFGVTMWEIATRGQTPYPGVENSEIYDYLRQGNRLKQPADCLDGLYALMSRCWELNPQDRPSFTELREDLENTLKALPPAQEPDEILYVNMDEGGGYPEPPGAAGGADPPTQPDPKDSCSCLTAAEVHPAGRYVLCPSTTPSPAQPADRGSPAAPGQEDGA

[3] = test system: HDAC activity in HeLa extracts; settings: read-out: IC50 for inhibition of HDAC activity; cited from earlier work
[4] = test system: histone deacetylases (HDACs); settings: isoform not stated; read-out: IC50 (histone deacetylase); cited from earlier work
[5] = test system: Human foreskin fibroblasts (CRL-2097); experiment: Conversion of human fibroblasts into definitive endodermal progenitor cells (FOXA2 positive colonies); settings: Parnate, RG108 condition
[6] = test system: definitive endoderm-like cells (DELCs); experiment: Induction of pancreatic progenitor-like cells from DELCs (Pdx1/Nkx6.1 staining); type: cell-based, mouse; settings: 400-compound collection; confirmed in larger-well cultures
Experimental: At the end of treatment, lineage specific markers were analyzed by immunostaining and/or real-time.
Primary antibodies used were Sox17 (R&D), Foxa2 (Millipore), Pdx1 (R&D), Hnf6 (Santa Cruz), Pax6 (Covance), Sox9 (Santa Cruz), Nkx6.1 (Developmental Studies Hybridoma Bank), Insulin (Dako), Glucagon (Sigma), Somatostatin (Abeam), Amylase (Abeam), and CK19 (Abcam). Nuclei were visualized by DAPI (Sigma-Aldrich) staining Images were captured using a Nikon Eclipse TE2000-U microscope.
An available drug collection of 400 compounds in the 48well format was screened to identify small molecules that induce high percentages of Pdx 1^+/NKx6.1^+ cells in DELC populations. Med-III medium (DMEM supplemented with 1 kB27, 2 mM GLUTAMAX™) was used as the basal condition and double staining of Pdx1 and Nkx 6.1 at 4 days post-induction was used as the readout.

[7] = test system: pancreatic progenitor-like cells (PPLCs); experiment: Maturation of PPLCs into pancreatic-like cells (insulin/Pdx1, day 25); settings: 5 μM SB203580 or 280 μM pVc used individually
[8] = test system: MEL1 INS GFP/W hESC spheres; experiment: hESC suspension differentiation, flow cytometry of PDX1 and NKX6.1; type: cell-based, human; settings: day 9.5
Text: Treatments consisted of combinations of Cyclopamine (C), Noggin (N), and retinoic acid (R) during days 6-8, followed by subdivision of each condition into three treatment groups during day 9-9.5. Group 1) continuation of day 6-8 treatment; Group 2) treatment with EGF and KGF (EK); Group 3) treatment with EGF, KGF, and Noggin (EKN). […] Data shown are representatives of results obtained in two independent experiments. […] FIG. 17B: Quantification of PDX1 (orange gate) and NKX6.1 (blue gate) protein expressing cells in individual conditions after 9.5 days of differentiation.
Suspension-based differentiations were carried out as follows. Briefly, confluent cultures were dissociated into single cell suspension by incubation with TrypLE (Gibco). […] To induce definitive endoderm differentiation, aggregates were collected 24 hours later in a 50 ml falcon tube, allowed to settle by gravity, washed once with PBS and re-suspended in d1 media (RPMI (Gibco) containing 0.2% FBS, 1:5000 ITS (Gibco), 100 ng/ml Activin A, and 50 ng/ml WNT3a (R&D systems)). Clusters from 3 wells were combined into 2 wells at this point and distributed into fresh low-attachment plates in 5.5 ml d1 media. Media thereafter was changed daily, by removing either 4.5 ml media (at the end of d1) or 5.5 ml media the following days and adding back 5.5 ml fresh media until day 9. After day 9, only 5 ml of media was removed and added daily.
Briefly, spheres were collected and allowed to settle by gravity. Clusters were washed once in PBS and dissociated by gentle pipetting after 12-15 minutes incubation in Accumax (Innovative Cell Technologies). For sorting, cell suspensions were filtered and re-suspended in FACS buffer consisting of phosphate-buffered saline (PBS) (UCSF cell culture facility) containing 2 mM EDTA (Ambion) and 1% BSA (Sigma). Dead cells were excluded by DAPI (Sigma) staining Cell sorting was performed on a FACS Aria II (BD Bioscience). […]

[9] = test system: pancreatic endodermal progenitor cells (cPE cells); experiment: Maturation of cPE cells into C-peptide positive cells, chemical screen; settings: added individually to basal pancreatic differentiation media
[10] = test system: pancreatic endodermal progenitor (cPE) cells; experiment: Protocol 2 maturation of cPE cells into cPB cells (INSULIN mRNA, C-peptide cells)
SAPK2/p38 = SAPK2/p38 (Homo sapiens, UniProt Q16539); settings: cited from earlier work
Chain of SAPK2/p38 (Q16539 whole entry): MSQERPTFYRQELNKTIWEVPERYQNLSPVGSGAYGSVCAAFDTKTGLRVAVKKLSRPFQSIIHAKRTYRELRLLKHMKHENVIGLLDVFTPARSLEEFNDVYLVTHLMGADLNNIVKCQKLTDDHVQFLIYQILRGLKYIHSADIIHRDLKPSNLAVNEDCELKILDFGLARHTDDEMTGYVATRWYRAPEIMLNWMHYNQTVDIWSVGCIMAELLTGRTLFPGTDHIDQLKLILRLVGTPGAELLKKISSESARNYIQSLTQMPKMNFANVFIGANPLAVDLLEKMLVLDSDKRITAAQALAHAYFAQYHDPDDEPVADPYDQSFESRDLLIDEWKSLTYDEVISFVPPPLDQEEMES

p38 MAPK = p38 MAPK (Homo sapiens, UniProt Q16539); settings: read-out: IC50 for p38 MAPK; cited from earlier work
Chain of p38 MAPK (Q16539 whole entry): as above

γ-secretase = settings: read-out: IC50 for total β-amyloid; cited from earlier work
presenilase = settings: higher concentrations (20-400 μM); cited from earlier work
[11] = test system: Src-dependent cell proliferation; settings: cited from earlier work
[12] = test system: MKN45, U87MG, MDA-MB-231, COLO205, and A549 tumor cells; settings: 20 mg/kg-60 mg/kg; c-Met-driven or non-c-Met-driven xenografts; cited from earlier work

COc1cc2nc(N3CCCN(C)CC3)nc(NC3CCN(Cc4ccccc4)CC3)c2cc1OC [Bix-01294]
numbers of Sox17 and Foxa2 single positive and double positive cells [1]: no significant influence
number of Pdx1+/Nkx6.1+ colonies [2]: about 3 fold

S=C(NCc1ccc2c(c1)OCO2)N1CCN(c2ncnc3c2oc2ccccc23)CC1 [Amuvatinib]
tyrosine phosphorylation of AXL (Axl): inhibits tyrosine phosphorylation of AXL

Nc1ccccc1NC(=O)CCCCCCC(=O)Nc1ccccc1 [BML-210, N1-(2-aminophenyl)-N8-phenyl-octanediamide]
IC50 [3]: ~80 µM

Nc1ccccc1NC(=O)c1ccc(CNc2nccc(-c3cccnc3)n2)cc1 [MGCD0103, N-(2-aminophenyl)-4-[[(4-pyridin-3-ylpyrimidin-2-yl)amino]methyl]benzamide]
IC50 [4]: ~100 nM

CCNC(=O)[C@H]1O[C@@H](n2cnc3c(N)ncnc32)C(O)C1O (stereo partly drawn) [NECA, 5′-N-ethylcarboxamidoadenosine]
increase of conversion rate over the basal protocol ([5]; NECA added to NaB): 5 fold
further increase of conversion rate over the improved condition ([5]; added to NaB): 2 fold

2-Phospho-L-ascorbic acid trisodium salt [pVc]
numbers of Sox17 and Foxa2 single positive and double positive cells [1]: no significant influence
screen result: increase of Pdx1 and/or Nkx6.1 expression [6]: Confirmed hits
number of insulin+/Pdx1+ double-positive cells [7]: significantly increased
number of Pdx1+/Nkx6.1+ colonies [2]: ~4 fold

Nc1ccccc1NC(=O)c1ccc(CNC(=O)OCc2cccnc2)cc1 [MS-27-275]
IC50 [4]: 100 to 1000 nM

CC1=C(/C=C/C(C)=C/C=C/C(C)=C/C(=O)O)C(C)(C)CCC1 [retinoic acid]
PDX1 positive progenitors ([8]; days 6-8, alone or in combination (conditions 4, 5, 6), group 1): > 88%

Cc1cccc(-c2nn(C(=S)Nc3ccccc3)cc2-c2ccnc3ccccc23)n1 [A83-01, 3-(6-Methyl-2-pyridinyl)-N-phenyl-4-(4-quinolinyl)-1H-pyrazole-1-carbothioamide]
screen result: increase of Pdx1 and/or Nkx6.1 expression [6]: Confirmed hits

CC1NC(=O)C(C)NC(=O)C2CCCN2C(=O)C(CCCCCCC(=O)C2CO2)NC1=O [HC Toxin, (6R,9S,14aR)-3,6R-dimethyl-9S-(7-((S)-oxiran-2-yl)-7-oxoheptyl)decahydropyrrolo[1,2-a][1,4,7,10]tetraazacyclododecine-1,4,7, 10-tetranone]
IC50 [4]: 30 nM

C[S+]([O-])c1ccc(-c2nc(-c3ccc(F)cc3)c(-c3ccncc3)[nH]2)cc1 (stereo not drawn) [SB203580, 4-(4-fluorophenyl)-2-(4-methylsulfinylphenyl)-5-(4-pyridyl)-1H-imidazole]
number of insulin+/Pdx1+ double-positive cells [7]: significantly increased

COC(=O)C1=C(C)NC(C)=C([N+](=O)[O-])C1c1ccccc1C(F)(F)F (stereo not drawn) [BayK-8644, 3-pyridinecarboxylic acid, 1,4-dihydro-2,6-dimethyl-5-nitro-4-(2-(trifluoromethyl)phenyl), methyl ester]
percentage of C-peptide positive cells, individual supplementation [9]: effective in increasing
number of C-peptide positive cells co-expressing PDX1 and NKX6.1 [10]: increased
expression of the INSULIN gene (mRNA) ([10]; day 21, compared to DMSO controls): promoted expression

NC(=O)c1ccc(-c2nc(-c3ccc4c(c3)OCCO4)c(-c3ccccn3)[nH]2)cc1 [D 4476, 4-[4-(2,3-Dihydro-1,4-benzodioxin-6-yl)-5-(2-pyridinyl)-IH-imidazol-2-yl]benzamide]
selectivity over SAPK2/p38 (SAPK2/p38): greater than 20 fold

CC1(C)NC(=O)C(CCCCCC(=O)[C@H]2CO2)NC(=O)C2CCCN2C(=O)[C@@H](Cc2ccccc2)NC1=O (stereo partly drawn) [Chlamydocin, (3R)-3-benzyl-6,6-dimethyl-9-[6-[(2R)-oxiran-2-yl]-6-oxohexyl]-1,4,7,10-tetrazabicyclo[10.3.0]pentadecane-2,5,8,11-tetrone]
IC50 [4]: ~0.15 nM

CC1=C2C[C@H]3[C@@H](CC=C4C[C@@H](O)CC[C@@]43C)[C@@H]2CC[C@]12O[C@@H]1C[C@H](C)CN[C@H]1[C@H]2C [Cyclopamine]
generation of PDX1+ cells over base media alone ([8]; alone, conditions 2 and 3): did not result in enhanced generation

Cc1cccc(-c2n[nH]cc2-c2ccc3ncccc3n2)n1 [ALK5 inhibitor II, 2-(3-(6-methylpyridine-2-yl)-1H-pyrazol-4-yl)-1,5-naphthyridine]
IC50 (p38 MAPK): > 16 µM

Cc1c(C(=O)Nc2ccc(N3C[C@@H](C)O[C@@H](C)C3)nc2)cccc1-c1ccc(OC(F)(F)F)cc1 [LDE225]
screen result: increase of Pdx1 and/or Nkx6.1 expression [6]: Confirmed hits

CC(/C=C/C(=O)NO)=C\[C@@H](C)C(=O)c1ccc(N(C)C)cc1 [Trichostatin A, (R,2E,4E)-6-(4-(dimethylamino)benzoyl)-N-hydroxy-4-methylhepta-2,4-dienamide]
IC50 [4]: ~1.8 nM

C[C@H](NC(=O)Cc1cc(F)cc(F)c1)C(=O)N[C@H]1N=C(c2ccccc2)c2ccccc2N(C)C1=O [Compound E]
IC50 (γ-secretase): 0.3 nM
effect on presenilase activity (presenilase): only weakly affects
percentage of C-peptide positive cells, individual supplementation [9]: effective in increasing

COc1cc(Nc2c(C#N)cnc3cc(OCCCN4CCN(C)CC4)c(OC)cc23)c(Cl)cc1Cl [Bosutinib]
IC50 [11]: 100 nM

Cn1cnc(-c2cc3nccc(Oc4ccc(NC(=S)NC(=O)Cc5ccccc5)cc4F)c3s2)c1 [MGCD-265]
tumor growth and c-Met signaling [12]: inhibits tumor growth and c-Met signaling

From patent US11332716B2, “Methods and compositions for producing pancreatic beta cells” (The Regents of the University of California, priority 2015, dated 2022)
